Test results as given in patent US11230711B2, “Inhibition of LET7I as a means to enhance the protective effect of progesterone against stroke” (UNIVERSITY OF NORTH TEXAS HEALTH SCIENCE CENTER, priority 2017, dated 2022).

Key:
[1] = test system: primary cortical astrocytes; assay: BDNF release from primary cortical astrocytes, BDNF in situ ELISA; assay type: cell-based, mouse
Experimental: To define the amount of endogenous BDNF released, we will modify the ELISA in situ protocol developed by Promega. A 96-well Nunc MaxiSorp surface polystyrene flat-bottom immunoplate was precoated with an anti-BDNF monoclonal antibody [diluted 1:1,000 in coating buffer (25 mM sodium bicarbonate and 25 mM sodium carbonate, pH 9.7)]. After rinsing off unbound antibody with TBS-T buffer [20 mM Tris-HCl (pH 7.6), 150 mM NaCl and 0.05% (v/v) Tween-20] and blocking the plate to minimize nonspecific binding, the culture media was added to the plate for 2 hrs to equilibrate the cell growth environment. […] The amount of specifically bound polyclonal antibody was then detected through the use of the anti-IgY-horseradish peroxidase (HRP) tertiary antibody (final concentration=0.5 μg/mL), which when exposed to the chromogenic substrate (TMB reagent; Promega), changes color in proportion to the amount of BDNF present in the sample. The color intensity was quantified by measuring the absorbance at 450 nm with a Viktor3 ELISA plate reader (Perkin Elmer). […] The amount of specifically bound polyclonal antibody was then detected through the use of the anti-IgY-horseradish peroxidase (HRP) tertiary antibody, which when exposed to the chromogenic substrate (TMB reagent, Promega), changes color in proportion to the amount of BDNF present in the sample. […]

let-7i = let-7i expression in the penumbra of the ischemic brain after MCAo (qRT-PCR); assay type: in vivo, mouse; details: MCAo mice; day 7 up to 14 days following stroke; FIG. 11E
From the text: (FIG. 11A) Representative immunoblots probed for Pgrmc1, pro- and mature-BDNF. (FIG. 11B) Quantitation graph of relative Pgrmc1 protein ratio to Gapdh (n=4-5 per group). (FIG. 11C) Quantitation graph of relative pro-BDNF protein ratio to Gapdh (n=4-5 per group). (FIG. 11D) Quantitation graph of relative mature BDNF protein ratio to Gapdh (n=4-5 per group). (FIG. 11E) Quantitation graph of relative let-7i expression in ischemic brain (n=4-5 per group). n.s: not significant, ** P<0.01 and *P<0.05 compared to sham, and #P<0.05 compared to P4+scrambled. Data are presented as the mean±SEM.
For miRNA expression measurements, total RNA (10 ng) was reverse transcribed into cDNA in a total volume of 15 μl using the microRNA cDNA Archive Kit (ThermoFisher Scientific) according to the manufacturer's instructions. The reaction mixture contained water, 2× quantitative PCR Master Mix (Eurogentec), and 20× Assay-On-Demand for each target gene. A separate reaction mixture was prepared for the endogenous control, U6. The reaction mixture was aliquoted in a 96-well plate, and cDNA added to give a final volume of 20 μl. Each sample was analyzed in triplicate. The comparative cycle threshold (Ct) method (2^−ΔΔCt) was used to calculate the relative changes in target miRNA expression.
All mice were first ovariectomized to deplete endogenous ovarian hormone levels. […]

SMILES: CC(=O)[C@H]1CC[C@H]2[C@@H]3CCC4=CC(=O)CC[C@]4(C)[C@H]3CC[C@]12C [P4, progesterone]
- BDNF release in P4-treated cultures ([1]; astrocyte cultures, control cultures as little as 2 pg/ml): ~250 pg/mL
- P4-induced BDNF release after OGD ([1]; primary cortical astrocytes exposed to one-hour OGD, FIG. 8B): compromised
- stroke-induced increase in let-7i expression in the penumbra (let-7i): did not attenuate
